The structures appear in SMILES notation. Read-outs that look alike come from different tables or passages of the source. Where only a bound is given, the exact number is not on record here.

Results on 6 compounds are retold here after US20250170111A1, “PYRIDINE BASED CHALCONE ANALOGS AS THERAPEUTIC AGENTS AND USE THEREOF” (QATAR UNIVERSITY, priority 2023, published 2025).

In series [1] the test system is DU145. Briefly: Alamar Blue cell viability assay, DU145. As to conditions: Homo sapiens, DU-145, 48 h, read-out: DU145 IC50. For orientation: Alamar Blue is a resazurin reagent that responds to reducing activity.
For series [2], the system named is PC3 and DU145. Briefly: Alamar Blue cell viability, AR-negative PCa cell lines (stated for both). Conditions: Homo sapiens, DU-145, read-out: IC50 against PC3 and DU145 cell lines.
Series [3] concerns DU145. Briefly: Cell cycle analysis (PI flow cytometry), DU145. The class given is cell-based, human. As to conditions: DU145, 48 hours; not statistically significant (P>0.05). The procedure:
Cells were seeded in 100 mm Petri dishes at a density of 1.5 million cells/dish and incubated in RPMI supplemented with 10% FBS overnight at 37° C. Complete culture media was then removed, and cells were starved in serum serum-free for 16 hours to synchronize cells at the G0/G1 phase of the cell cycle. Subsequently, cells were treated with the compounds 13, 15, and 16 or docetaxel for 48 hours. After treatment, floating and adherent cells were collected, washed with ice-cold PBS and centrifuged at 500 g for 10 minutes at 4° C. Next, cells were fixed with ice-cold 70% ethanol added drop wisely while vertexing and stored at −20° C. for at least 24 hours. On the day of analysis, cells were pelleted (centrifuged at 800 g for 10 minutes at 4° C.), washed twice with ice-cold PBS and counted. Around one million cells of each sample were resuspended in 500 μl of FxCycle PI/RNase Staining Solution® (Thermo Fisher Scientific, USA) supplemented with 200 μg/ml RNase and incubated for 50 minutes at 37° C. in a shaking water bath, protected from light. Following incubation, cells were immediately analyzed by BD FACSAria™ II Flow Cytometer, at least 50,000 events were acquired for each sample. The proportion of cells in each cell cycle phase: […]
(In general: Flow cytometry measures light scatter and fluorescence of single cells or particles in a stream.)

Series [4] deals with primary human dental bulb cells (ND). Briefly: Alamar Blue cell viability, normal primary dental cells. Conditions: 48 hours, Mean ± SEM.
Series [5] deals with JNK1/2/3, ERK1/2, Akt. Briefly: Western blot of JNK, ERK and AKT-related biomarkers in PC3. As to conditions: PC3 cell line.
Series [6] has as its system PC3. Briefly: Alamar Blue cell viability assay, PC3. As to conditions: for IC50: read-out: PC3 IC50, 48 hours, Mean ± SEM of three independent experiments.
For series [7], the system named is Bax, Bcl-2. Briefly: Western blot of apoptosis-related proteins in PC3 and DU145. As to conditions: PC3 and DU145, 48 hours of treatment. In general terms: In western blotting, separated proteins are transferred to a membrane and probed.
Series [8] has as its system PC3 and DU145. Briefly: Wound healing assay, PC3 and DU145. Conditions: both cell lines; significant from 5 μM in PC3.
Series [9] concerns MDA-MB-231 and MDA-MB-436. Briefly: Soft agar colony formation assay, TNBC cell lines. The class given is cell-based, human. As to conditions: 28 days.
Series [10] deals with MDA-MB-436. Briefly: Alamar Blue cell viability assay, MDA-MB-436. In kind it is cell-based. As to conditions: Homo sapiens, Mean ± SEM, read-out: IC50 against MDA-MB-436. From the text:
(§1) Besides, the effect of these analogs was compared to docetaxel, a first-line chemotherapy, as a positive control.

Series [11] deals with MCF 10A. Briefly: Alamar Blue cell viability, normal breast epithelial cell line.
For series [12], the system named is MDA-MB-231. Briefly: Alamar Blue cell viability assay, MDA-MB-231. The class given is cell-based. Conditions: Homo sapiens, Mean ± SEM, read-out: IC50 against MDA-MB-231.
Text: as §1

For series [13], the system named is MDA-MB-231 and MDA-MB-436. Briefly: Alamar Blue cell viability, TNBC cell lines (stated for both). The class given is cell-based. Conditions: Homo sapiens.
Text: as §1

Series [14] deals with MDA-MB-231. Briefly: Wound healing assay, MDA-MB-231. The class given is cell-based, human.
In series [15] the test system is MDA-231 and MDA-436. Briefly: Morphological examination, TNBC cell lines. The class given is cell-based, human. Conditions: 24 and 48 hours post treatment. The procedure: Cells were seeded in 6 wells plate at a density of 150,000-200,000 cells/well and were incubated overnight. Then, cells were treated with the synthesized compounds at 5-10 μM concentration for 48 hours. Morphological changes were monitored using a DMi8 inverted microscope (Leica, Germany) and images were captured with a Leica MC170 HD camera.

For series [16], the system named is MCF 10A. As to conditions: selectivity index.
Series [17] has as its system PC3 and DU145. Briefly: Cell cycle analysis (PI flow cytometry), PC3 and DU145. The class given is cell-based, human. As to conditions: 48 hours. The method, then:
The compounds' effect on cell cycle distribution of PC3 and DU145 was assessed by flow cytometry using propidium iodide (PI). Cells were seeded in 100 mm Petri dishes at a density of 1.5 million cells/dish and incubated in RPMI supplemented with 10% FBS overnight at 37° C. Complete culture media was then removed, and cells were starved in serum serum-free for 16 hours to synchronize cells at the G0/G1 phase of the cell cycle. Subsequently, cells were treated with the compounds 13, 15, and 16 or docetaxel for 48 hours. After treatment, floating and adherent cells were collected, washed with ice-cold PBS and centrifuged at 500 g for 10 minutes at 4° C. Next, cells were fixed with ice-cold 70% ethanol added drop wisely while vertexing and stored at −20° C. for at least 24 hours. On the day of analysis, cells were pelleted (centrifuged at 800 g for 10 minutes at 4° C.), washed twice with ice-cold PBS and counted. […] Following incubation, cells were immediately analyzed by BD FACSAria™ II Flow Cytometer, at least 50,000 events were acquired for each sample. The proportion of cells in each cell cycle phase: G1, S and G2-M was determined using FlowJo software based on cells' DNA content as represented by histograms of PI signal intensity.

The subject of series [18] is C4-2 and LNCaP. Briefly: Morphological examination, AR-positive PCa cell lines. In kind it is cell-based. The method, then: Cells were seeded in 6 wells plate at a density of 150,000-200,000 cells/well and were incubated overnight. […] Morphological changes were monitored using a DMi8 inverted microscope (Leica, Germany) and images were captured with a Leica MC170 HD camera.

For series [19], the system named is PC3 and DU145. Briefly: Soft agar colony formation assay, PC3 and DU145 (stated for both). The class given is cell-based, human. As to conditions: 5 and 10 μM, 14 days, both cell lines. The procedure:
Anchorage-independent growth, a characteristic of transformed cells that correlate with in vivo tumorigenic potential, was assessed by soft agar assay. First, a 2% noble agar (Sigma-Aldrich) stock solution was prepared in deionized and autoclaved water. […] After 14 days, the average number of colonies in each well was counted manually under the microscope and confirmed by ImageJ; only colonies with an area larger than […] were counted to avoid the inclusion of non-proliferating dead cells. Besides, the size of colonies in each treatment condition was measured by ImageJ from at least six random fields per well.

[20] abbreviates: range over both TNBC cell lines, read-out: IC50 against MDA-MB-231 and MDA-MB-436 cell lines.

Turning to `COc1ccc2c(c1)C(=O)/C(=C/c1cccc(-c3ccsc3)n1)CC2` [Compound 15, (E)-7-methoxy-2-((6-(thiophen-3-yl)pyridin-2-yl)methylene)-3,4-dihydronaphthalen-1 (2H)-one], the IC50 – broadly, the point on the concentration scale where inhibition reaches its midpoint – in series [1] is 6.47 ± 0.57 µM; in [2] it was 4.32 to 6.47 µM; in series [6], 6.6 ± 0.49 µM. Further, the “effect on cell cycle distribution” value in series [3] is “slight accumulation in G2/M and sub G1 phases”. Besides, in series [4], the “ND LD50” value was above 50.0 µM. For the same compound, the “expression of JNK1/2/3, ERK1/2, Akt and phosphorylated forms” value in [5] is “reduced the expression of JNK1/2/3, p-ERK1/2, Akt and p-Akt”. Also, the Bax/Bcl-2 expression result in [7] is “significant increase in Bax/Bcl-2 ratio”. The wound closure result in series [8] is “dose-dependent reduction in wound closure”.

As for `COc1ccccc1C(=O)/C=C/c1cccc(-c2ccsc2)n1` [Compound 17, (E)-1-(2-methoxyphenyl)-3-(6-(thiophen-3-yl)pyridin-2-yl) prop-2-en-1-one], in series [9], the “colony formation in soft agar (number and size)” value (from here on “colony formation in soft agar”) is “significant reduction in both the total number of colonies and average colony size”. Further, the IC50 in [10] (24 hrs. post treatment) was 3.2 ± 0.2 µM; in series [10] (48 hrs. post treatment), 1.6 µM; in [12] (24 hrs. post treatment) it was 3.6 ± 0.5 µM; in series [12] (48 hrs. post treatment) it was 3.2 µM; in series [13] (setting [20]), 0.87 to 3.2 µM. In addition, the “selectivity versus normal cells (MCF10a)” value in series [11] is listed as “greater selectivity towards cancerous cell lines”. Moreover, in series [6] (2.5 μM), the “reduction in cell viability of PC3” value is on record as 84.7%. For the same compound, in [14], the “cell migration of MDA-MB-231 (wound healing)” value was “significantly reduced cell migration”. Further, the “effect on cell morphology” value in series [15] was “lose their shape, shrink in size, form apoptotic bodies, and increased cell death”.

For `CS(=O)(=O)c1ccc(C(=O)/C=C/c2cccc(-c3ccsc3)n2)cc1` [Compound 23, (E)-1-(4-(methylsulfonyl)phenyl)-3-(6-(thiophen-3-yl)pyridin-2-yl) prop-2-en-1-one], in [9], the “colony formation in soft agar” value is “significant reduction in both the total number of colonies and average colony size”.

Regarding `O=C(/C=C/c1cccc(-c2ccsc2)n1)c1ccccc1C(F)(F)F` [Compound 25, (E)-3-(6-(thiophen-3-yl)pyridin-2-yl)-1-(2-(trifluoromethyl)phenyl) prop-2-en-1-one], the IC50 was 2.4 ± 0.2 µM in [10] (24 hrs. post treatment); 0.87 µM in series [10] (48 hrs. post treatment); 3.5 ± 1.47 µM in series [12] (24 hrs. post treatment); 2.1 µM in series [12] (48 hrs. post treatment); 0.87 to 3.2 µM in [13] (setting [20]); 0.87 to 2.1 µM in series [13] (range, unit inferred, read-out: IC50 (TNBC cell lines)). Besides, in series [11] (MDA-231 and MDA-436 vs MCF10a), the “selectivity versus normal cells (MCF10a)” value is listed as “greater selectivity towards cancerous cell lines”. The “Effect on non-tumorigenic epithelial cell line MCF 10A” value in series [11] (after 48 hrs.) stood at 3.44 ± 0.4 µM. Further, in series [16], the “SI of MCF 10A/MDA-MB231” value came to 1.8. Further, in series [16], the “SI of MCF 10A/MDA-MB436” value amounted to 3.9. The “cell migration of MDA-MB-231 (wound healing)” value in series [14] (dose-dependent) is on record as “significantly reduced cell migration”. Further, the “effect on cell morphology” value in series [15] is “lose their shape, shrink in size, form apoptotic bodies, and increased cell death”.

Turning to `CC(=O)O[C@@]12CO[C@@H]1C[C@H](O)[C@@]1(C)C(=O)[C@H](O)C3=C(C)[C@@H](OC(=O)[C@H](O)[C@@H](NC(=O)OC(C)(C)C)c4ccccc4)C[C@@](O)([C@@H](OC(=O)c4ccccc4)[C@H]21)C3(C)C` [docetaxel, reference compound], the IC50 in series [10] (24 hrs. post treatment) worked out at 11.9 ± 2.7 µM; in series [10] (48 hrs. post treatment) it was 9.8 ± 2 µM; in series [12] (24 hrs. post treatment), 11 ± 1.7 µM; in series [12] (48 hrs. post treatment), 6.43 ± 0.6 µM. The “increase of G2/M phase as compared to control” value in series [17] is recorded as 1.9-2.6 folds.

In the case of `COc1cc2c(cc1OC)C(=O)/C(=C/c1ccc(-c3ccsc3)nc1)CC2` [Compound 13, (E)-6,7-dimethoxy-2-((6-(thiophen-3-yl)pyridin-3-yl)methylene)-3,4-dihydronaphthalen-1 (2H)-one], the IC50 is 5.63 ± 1.07 µM in series [1], 4.32 to 6.47 µM in series [2] and 5.6 ± 0.38 µM in [6]. Further, the “effect on cell morphology” value in series [18] was “lose their shape, shrink in size, and increased cell death”. Besides, the “effect on cell cycle distribution” value in [3] was “slight accumulation in G2/M and sub G1 phases”. Further, the “ND LD50” value in [4] was above 50.0 µM. Also, the “colony formation in soft agar” value in [19] was “significant reduction in both the total number of colonies and average colony size”. In [7], the Bax/Bcl-2 expression result is listed as “significant increase in Bax/Bcl-2 ratio”. Also, the wound closure result in [8] is reported as “dose-dependent reduction in wound closure”.
